Measured values: patent publication US20110039762A1, “TARGETED ANTIMICROBIAL MOIETIES” (C3 JIAN, INC., priority 2009, published 2011)
Entries after “also recorded” stand apart in the source; their conditions may differ.

system: microorganisms (e.g., bacteria, yeasts, fungi); experiment: Targeting peptide binding to target microorganisms (Table 3); conditions: microorganism the targeting peptide binds; binding in aqueous buffers varied by peptide solubility, preferably 1x PBS

Substance	Target(s)
1T-12 (FGNIFKGLKDVIETIVKWTAAK; Peptide with targeting and/or antimicrobial activity) [Peptide 1T-12]	C. xerosis; also recorded: C. striatum; also recorded: S. epidermidis; also recorded: S. mutans
1T-48 (KLQVHHGRATHTLLLQPPLCAPGTIR; Peptide with targeting and/or antimicrobial activity) [Peptide 1T-48]	S. aureus; also recorded: S. epidermidis; also recorded: C. jeikeium; also recorded: C. xerosis; also recorded: C. striatum; also recorded: P. aeruginosa
1T-76 (EMRLSKFFRDFILWRKK; Peptide with targeting and/or antimicrobial activity) [Peptide 1T-76]	S. pneumoniae
1T-154 (YFSFLEIVGMARR; Peptide with targeting and/or antimicrobial activity) [Peptide 1T-154]	P. gingivalis
1T-198 (MPVSKKRYMLSSAYATALGICYGQVATDEKESEITAIPDLLDYLSVEEYLL; Peptide with targeting and/or antimicrobial activity) [Peptide 1T-198]	P. gingivalis; also recorded: S. epidermidis; also recorded: S. gordonii; also recorded: S. mitis; also recorded: S. mutans; also recorded: S. oralis; also recorded: S. sanguinis
1T-100 (LDPLEPRIAPPGDRSHQGAPACHRDPLRGRSARDAER; Peptide with targeting and/or antimicrobial activity) [Peptide 1T-100]	S. gordonii; also recorded: S. mitis; also recorded: S. mutans
1T-96 (VAGACAQPFGGQ; Peptide with targeting and/or antimicrobial activity) [Peptide 1T-96]	S. gordonii; also recorded: S. mitis; also recorded: S. mutans; also recorded: S. oralis; also recorded: S. sanguinis
PF-060 (HSSHL; Peptide with targeting and/or antimicrobial activity)	E. coli; also recorded: C. albicans; also recorded: C. jeikeium
1T-304 (STAGEASRRTASEASRRTAAKLRG; Peptide with targeting and/or antimicrobial activity) [Peptide 1T-304]	P. gingivalis
1T-237 (EDPVPNHFTLRRNKKEKPSKS; Peptide with targeting and/or antimicrobial activity) [Peptide 1T-237]	S. sanguinis
1T-89 (HEDDKRRGMSVEVLGFEVVQHEE; Peptide with targeting and/or antimicrobial activity) [Peptide 1T-89]	S. mitis; also recorded: S. mutans
1T-216 (FFLNVIAIRIPHF; Peptide with targeting and/or antimicrobial activity) [Peptide 1T-216]	S. sanguinis
1T-110 (LAAKTAVCVGRAFM; Peptide with targeting and/or antimicrobial activity) [Peptide 1T-110]	A. naeslundii; also recorded: P. gingivalis; also recorded: S. epidermidis; also recorded: S. gordonii; also recorded: S. mitis; also recorded: S. mutans; also recorded: S. oralis; also recorded: S. sanguinis
PF-044 (KLKKYIHKPD; Peptide with targeting and/or antimicrobial activity)	S. epidermidis and M. luteus and MRSA and C. jeikeium
1T-273 (YNEPNYKWLESYKIYKQRCEDRTGMYYTEET; Peptide with targeting and/or antimicrobial activity) [Peptide 1T-273]	F. nucleatum; also recorded: P. gingivalis; also recorded: T. denticola; also recorded: S. mitis; also recorded: S. mutans; also recorded: S. oralis
1T-41 (KRGSKIVIAIAVVLIVLAGVWVW; Peptide with targeting and/or antimicrobial activity) [Peptide 1T-41]	S. mutans; also recorded: S. aureus; also recorded: S. epidermidis; also recorded: C. jeikeium; also recorded: C. striatum; also recorded: P. aeruginosa
1T-269 (PLYVAAVEKINTAKKH; Peptide with targeting and/or antimicrobial activity) [Peptide 1T-269]	F. nucleatum; also recorded: S. mutans; also recorded: S. oralis; also recorded: S. sanguinis
1T-145 (VEAGKRNISLENIEKISKGLGISISELFKYIEEGEDKIG; Peptide with targeting and/or antimicrobial activity) [Peptide 1T-145]	S. mitis; also recorded: S. mutans; also recorded: S. oralis
1T-26 (LTILPTTFFAIIVPILAVAFIAYSGFKIKGIVEHKDQW; Peptide with targeting and/or antimicrobial activity) [Peptide 1T-26]	S. mutans; also recorded: S. aureus; also recorded: S. epidermidis; also recorded: C. jeikeium; also recorded: C. xerosis; also recorded: C. striatum; also recorded: P. aeruginosa
1T-58 (CDDLHALERAGKLDALLSA; Peptide with targeting and/or antimicrobial activity) [Peptide 1T-58]	P. aeruginosa
1T-287 (KGYPLPFQYRLNNH; Peptide with targeting and/or antimicrobial activity) [Peptide 1T-287]	P. gingivalis; also recorded: T. denticola; also recorded: S. gordonii; also recorded: S. mitis; also recorded: S. mutans; also recorded: S. oralis; also recorded: S. salivarious; also recorded: S. sanguinis

same assay, conditions: microorganism(s) the targeting peptide binds; binding in aqueous buffers depending on peptide solubility, preferably 1x PBS

Substance	Target(s)
PF-236 (KEIRTATVAELNAKRRLTSAEQALAEVS; Peptide with targeting and/or antimicrobial activity)	S. mutans; also recorded: S. epidermidis; also recorded: E. coli; also recorded: C. albicans; also recorded: S. pneumoniae; also recorded: E. faecalis
PF-259 (LPFSKIGRRVSYKKKDVLKYEQSKTVLNTAQLATV; Peptide with targeting and/or antimicrobial activity)	S. epidermidis; also recorded: P. aeruginosa; also recorded: A. baumannii
PF-101 (DPVPERQEQACACHRTAKPGK; Peptide with targeting and/or antimicrobial activity)	S. mutans
PF-368 (MLKQTA; Peptide with targeting and/or antimicrobial activity)	C. jeikeium; also recorded: C. jejuni
PF-253 (VRDDDS; Peptide with targeting and/or antimicrobial activity)	S. epidermidis; also recorded: M. luteus
PF-291 (DVDGAIESEL; Peptide with targeting and/or antimicrobial activity)	S. mutans; also recorded: E. coli
PF-138 (AVHHSLLFR; Peptide with targeting and/or antimicrobial activity)	S. epidermidis and M. luteus and P. mirabilis and E. coli and C. albicans and MRSA and C. jeikeium and C. jejuni
PF-263 (NLKKCPC; Peptide with targeting and/or antimicrobial activity)	S. epidermidis; also recorded: M. luteus; also recorded: A. baumannii
PF-163 (TSWLRAAERQEIGEPTKTFGEKTTSL; Peptide with targeting and/or antimicrobial activity)	S. epidermidis
PF-183 (KPGISVENRQ; Peptide with targeting and/or antimicrobial activity)	S. epidermidis and M. luteus and E. coli and C. albicans and MRSA and E. faecalis and C. jeikeium
PF-282 (QNNDTSAWCGSAHKNGNS; Peptide with targeting and/or antimicrobial activity)	S. mutans

same assay, conditions: microorganism(s) the targeting peptide binds; peptide binding conducted in aqueous buffers varied by peptide solubility, preferably 1x PBS

Substance	Target(s)
PF-400 (VIAWKFRNKFENSGV; Peptide with targeting and/or antimicrobial activity)	S. epidermidis; also recorded: E. coli; also recorded: S. pneumoniae; also recorded: E. faecalis; also recorded: C. jeikeium
PF-505 (GYTKDPGTGI; Peptide with targeting and/or antimicrobial activity)	S. mutans
PF-491 (IHQYSSKPDIVGQEAKTVQQINS; Peptide with targeting and/or antimicrobial activity)	S. mutans; also recorded: E. coli
PF-486 (MQKEGEEDY; Peptide with targeting and/or antimicrobial activity)	S. mutans
PF-487 (MYKAIAVLAMTIMAFFIFVYPFFIVGLILG; Peptide with targeting and/or antimicrobial activity)	S. mutans; also recorded: E. coli

same assay, conditions: peptide binding in aqueous buffers varied by peptide solubility; preferably 1x PBS

Substance	Target(s) (microorganisms bound by the targeting peptide)
PF-C160 (AASGFTYCASNGVWHPY; Peptide with targeting and/or antimicrobial activity)	F. nucleatum
PF-781 (PLVVVNHRRAERSRG; Peptide with targeting and/or antimicrobial activity)	Mycobacteria spp.
PF-750 (AESSPAKTTA; Peptide with targeting and/or antimicrobial activity)	M. luteus; also recorded: C. jeikeium
PF-C050 (QGLARPVLRRIPL; Peptide with targeting and/or antimicrobial activity)	A. naeslundii; also recorded: S. mutans
PF-766 (DAYYAQLRKQKEIEEGA; Peptide with targeting and/or antimicrobial activity)	S. epidermidis and M. luteus and C. albicans and MRSA and E. faecalis and C. jeikeium
